For data set [1], the system named is P. falciparum 7G8 (Brazil). Description: [3H]-hypoxanthine incorporation assay, 7G8. Format: cell-based, Plasmodium falciparum. To be noted: read-out: 50% inhibitory concentration (IC50); 7G8, resistance CQ, PYR, CYC; mean ± SD.
The nature of data set [2]: Blood concentrations in P. berghei infected mice. In kind it is in vivo. Conditions: 1, 4, 24 h after first dose of triple-dose regimen. The protocol:
To assess the PK parameters in infected mice, blood samples were taken at 1, 4, and 24 h after the first dose of a triple-dose regimen in the P. berghei efficacy studies. The employed doses were 15 or 30 mg/kg bis in die (b.i.d.), and 30, 50, 100, 300 mg/kg quaque die (q.d.) (n = 3/timepoint and dose).

Data set [3] is described as follows: Safety pharmacology in dogs. In kind it is in vivo. To be noted: dogs dosed up to 500 mg/kg.
The subject of data set [4] is P. falciparum V1/S (Vietnam). In words: [3H]-hypoxanthine incorporation assay, V1/S. Format: cell-based, Plasmodium falciparum. To be noted: read-out: 50% inhibitory concentration (IC50); V1/S, resistance CQ, SUL, PYR, CYC; mean ± SD.
Data set [5] in a line: Blood to plasma ratio with 14C-labeled compound. In kind it is in vitro ADME. Conditions: human fresh whole-blood, 0.5 μg/mL, 60 minutes, 37 °C. The protocol:
The blood to plasma ratio was determined using ^14C-labeled ACT-451840 at Actelion Pharmaceuticals Ltd. (Allschwil, Switzerland). For this, human fresh whole-blood was spiked with a mixture of non-labeled and ^14C-labeled ACT-451840 at a nominal concentration of 0.5 μg / mL and incubated for 60 minutes on a rotary mixer at 37 °C. Radioactivity was determined by liquid scintillation counting in whole blood and after preparation of plasma.

For data set [6], the system named is Cam3.II^C580Y and Cam3.II^rev 0–3 h postinvasion rings. In words: Ring-stage survival assay (RSA0-3h). Conditions: 6-h pulse, 35–700 nM, survival assessed 66 h later. Format: cell-based, P. falciparum. The protocol:
Ring-stage survival assays (RSA0-3h) were carried out at Columbia University Medical Center (New York, United States) as previously described. Parasite cultures were synchronized using 5% sorbitol (Sigma-Aldrich), and schizonts were incubated in RPMI-1640 containing 15 units/ml sodium heparin for 15 min at 37°C to disrupt agglutinated erythrocytes. These schizonts were concentrated over a gradient of 75% Percoll (Sigma-Aldrich), washed once in RPMI-1640, and incubated for 3 h with fresh erythrocytes to allow time for merozoite invasion. Cultures were then subjected again to sorbitol treatment to eliminate remaining schizonts. The 0–3 h postinvasion rings were adjusted to 1% parasitemia and 2% hematocrit in 1 mL volumes (in 48-well plates) and exposed to a range of ACT-451840 drug concentration (700–35 nM) or 0.1% DMSO for 6 h. Duplicate wells were established for each parasite line ± drug concentration. One-mL cultures were then transferred to 15-mL conical tubes, centrifuged at 800xg for 5 min to pellet the cells, and the supernatants carefully removed. As a washing step to remove drug, 10 mL culture medium were added to each tube, and the cells were resuspended, centrifuged, and the medium was aspirated. […] Stained parasites were detected using a BD Accuri 6 Flow Cytometer and analyzed using FlowJo Software. IC50 values were determined by nonlinear regression using GraphPad Prism 6.0. […]

The test system of the next data set is P. falciparum. In words: Prediction of human efficacious exposure. The text has this:
In this PK/PD approach, the robust endpoint of animal survival and cure were chosen for clinical relevance. […] The alternative approach used to assess efficacious concentrations in vivo calculated the minimum inhibitory concentration and estimated a minimum parasiticidal concentration from modeling of the exposure–efficacy in the P. falciparum murine model.

The subject of the next data set is P. berghei. In words: In vitro (ex vivo) activity against P. berghei, [3H]-hypoxanthine incorporation. In kind it is cell-based, Plasmodium berghei. To be noted: 16 h exposure + 8 h incorporation. The method, then: In vitro (ex vivo) activity against the mouse malaria parasite P. berghei was measured at the Swiss TPH as described elsewhere, with the following modifications: heparinised blood of P. berghei infected and uninfected control female NMRI mice (final hematocrit of 2.5%) was used and exposed to compounds for 16 h followed by 8 h of [^3H]-hypoxanthine incorporation.

Data set [7] can be described thus: General oral toxicity study up to 4 wk, rats. In kind it is in vivo.

The structures appear in SMILES notation.

As to `CC(=O)N1CCN(c2ccc(CN(C(=O)/C=C/c3ccc(C(C)(C)C)cc3)[C@@H](Cc3ccccc3)C(=O)N3CCN(Cc4ccc(C#N)cc4)CC3)cc2)CC1` [ACT-451840], the IC50 in data set [1] worked out at 0.3 ± 0.1 nM; in data set [4], 0.3 nM; in the data set on P. berghei, 13.5 nM. Also, the “blood concentration in infected mice compared to healthy mice” value in data set [2] was “No significant difference”. Moreover, the “effect on cardiovascular parameters” value in data set [3] is recorded as “no effect”. In addition, the “blood to plasma concentration ratio” value in data set [5] is on record as 0.6. For the same molecule, the “ring-stage survival rates, wild-type K13 allele versus C580Y mutation” value in [6] is listed as “No difference in survival rates”. For the same molecule, the “efficacious human total AUC, expressed in mouse blood” value with P. falciparum (227 x 23) was 5,250 ng*h/mL. For the same molecule, the “predicted total efficacious human plasma AUC” value in the data set on P. falciparum (corrected for blood/plasma ratio of 0.6) is reported as 8,750 ng*h/mL. The “time for which the threshold of […] would be covered” value with P. falciparum (single dose of 500 mg, fed state, healthy subjects) is on record as 72 h. The molecule also displayed a no-observed-adverse-effect level in data set [7] (oral) of 100 mg/kg/day. In addition, the local gastrointestinal toxicity result in data set [7] (oral up to 2,000 mg/kg/day) is “no evidence of local gastrointestinal toxicity”.

The values above are taken from publication PMC5049785, “Characterization of Novel Antimalarial Compound ACT-451840: Preclinical Assessment of Activity and Dose–Efficacy Modeling” (PLoS Medicine, 2016).
